Assay results reported in the NIST ThermoML archive (doi:10.1016/j.fluid.2011.01.027).
Numbers after ± are expanded uncertainties.

CCCCn1cc[n+](C)c1.O=S(=O)([O-])C(F)(F)F [1-butyl-3-methylimidazolium trifluoromethanesulfonate]
surface tension liquid-gas [mN/m]
Conditions	Wilhelmy plate method	du Nouy method
292.18 K	35.39 ± 0.09	–
292.24 K	–	35.4 ± 0.09
293.4 K	35.21 ± 0.18	–
293.45 K	–	35.17 ± 0.18
298.06 K	35.18 ± 0.09	–
298.12 K	–	35.2 ± 0.09
298.22 K	35.09 ± 0.18	–
298.27 K	–	35.1 ± 0.18
303.03 K	35.05 ± 0.09	–
303.09 K	–	35.09 ± 0.09
303.18 K	34.87 ± 0.17	–
303.2 K	–	34.98 ± 0.18
308.01 K	34.71 ± 0.17	–
308.06 K	34.83 ± 0.09	–
308.08 K	–	34.85 ± 0.09
313.26 K	34.65 ± 0.09	–
313.31 K	–	34.63 ± 0.09
313.58 K	–	34.59 ± 0.17
313.59 K	34.54 ± 0.17	–
318.1 K	–	34.44 ± 0.09
318.13 K	34.53 ± 0.09	–
318.51 K	34.35 ± 0.17	–
318.68 K	–	34.36 ± 0.17
322.87 K	34.34 ± 0.09	–
322.93 K	34.18 ± 0.17	–
322.99 K	–	34.22 ± 0.17
327.64 K	34.19 ± 0.09	34.08 ± 0.09
328.05 K	34.03 ± 0.17	–
328.09 K	–	33.8 ± 0.17
332.66 K	33.85 ± 0.17	–
332.74 K	–	33.82 ± 0.17
333.21 K	34.01 ± 0.09	–
333.25 K	–	33.89 ± 0.09
337.68 K	33.81 ± 0.09	–
337.83 K	33.74 ± 0.17	–
337.84 K	–	33.44 ± 0.17
337.92 K	–	33.73 ± 0.09
342.72 K	33.61 ± 0.08	–
343.12 K	–	33.47 ± 0.08
343.53 K	33.47 ± 0.17	–
343.61 K	–	33.41 ± 0.17
347.73 K	–	33.36 ± 0.08
347.79 K	33.54 ± 0.09	–
348.54 K	33.28 ± 0.17	–
348.64 K	–	32.9 ± 0.17
352.45 K	33.27 ± 0.08	–
352.7 K	–	33.08 ± 0.09
355.89 K	33 ± 0.17	–
356 K	–	32.82 ± 0.16

CCn1cc[n+](C)c1.F[B-](F)(F)F [1-ethyl-3-methylimidazolium tetrafluoroborate]
surface tension liquid-gas [mN/m]
Conditions	Wilhelmy plate method	du Nouy ring method
288.05 K	–	54.61 ± 0.06
288.06 K	54.61 ± 0.06	–
292.92 K	54.28 ± 0.06	–
292.93 K	–	54.55 ± 0.06
298.1 K	53.97 ± 0.06	–
298.12 K	–	54.01 ± 0.05
303.12 K	53.65 ± 0.05	–
303.13 K	–	53.96 ± 0.06
308.27 K	53.34 ± 0.05	53.77 ± 0.05
313.33 K	52.98 ± 0.05	–
313.43 K	–	53.05 ± 0.05
318.3 K	52.7 ± 0.05	–
318.35 K	–	52.86 ± 0.05
323.5 K	52.39 ± 0.05	–
323.53 K	–	52.54 ± 0.05
328.4 K	52.05 ± 0.05	–
328.54 K	–	52.18 ± 0.05
333.32 K	51.74 ± 0.05	–
333.48 K	–	51.87 ± 0.05
338.38 K	–	51.48 ± 0.05
338.39 K	51.4 ± 0.05	–
343.18 K	51.11 ± 0.05	–
343.32 K	–	51.11 ± 0.05
348.7 K	50.76 ± 0.05	–
348.78 K	–	50.74 ± 0.06
355.91 K	–	50.26 ± 0.05
355.99 K	50.27 ± 0.05	–

CCn1cc[n+](C)c1.O=S(=O)([O-])C(F)(F)F [1-ethyl-3-methylimidazolium trifluoromethanesulfonate]
Conditions	surface tension liquid-gas [mN/m]
268.29 K, Wilhelmy plate method	41.39 ± 0.21
268.36 K, du Nouy ring method	41.4 ± 0.21
272.08 K, Wilhelmy plate method	41.28 ± 0.21
272.13 K, du Nouy ring method	41.3 ± 0.21
276.54 K, Wilhelmy plate method	41.1 ± 0.21
276.65 K, du Nouy ring method	41.16 ± 0.21
281 K, Wilhelmy plate method	40.96 ± 0.2
281.05 K, du Nouy ring method	41.1 ± 0.21
287.58 K, du Nouy ring method	40.79 ± 0.2
287.63 K, Wilhelmy plate method	40.69 ± 0.2
293 K, du Nouy ring method	40.74 ± 0.2
293.01 K, Wilhelmy plate method	40.52 ± 0.2
298.01 K, Wilhelmy plate method	40.43 ± 0.2
298.04 K, du Nouy ring method	40.39 ± 0.2
303.18 K, du Nouy ring method	40.18 ± 0.2
303.2 K, Wilhelmy plate method	40.24 ± 0.2
308.2 K, Wilhelmy plate method	40.07 ± 0.2
308.31 K, du Nouy ring method	40.01 ± 0.2
313.27 K, Wilhelmy plate method	39.93 ± 0.2
313.31 K, du Nouy ring method	39.75 ± 0.2
318.36 K, Wilhelmy plate method	39.68 ± 0.2
318.39 K, du Nouy ring method	39.83 ± 0.2
323.33 K, Wilhelmy plate method	39.5 ± 0.2
323.38 K, du Nouy ring method	39.38 ± 0.2
328.2 K, du Nouy ring method	39.44 ± 0.2
333.07 K, Wilhelmy plate method	39.16 ± 0.2
333.12 K, du Nouy ring method	39.24 ± 0.2
338.1 K, Wilhelmy plate method	39.03 ± 0.2
338.15 K, du Nouy ring method	39.02 ± 0.2
343.14 K, Wilhelmy plate method	38.85 ± 0.2
343.21 K, du Nouy ring method	38.85 ± 0.19
348.38 K, Wilhelmy plate method	38.65 ± 0.19
348.53 K, du Nouy ring method	38.62 ± 0.19
356.09 K, Wilhelmy plate method	38.37 ± 0.19
356.28 K, du Nouy ring method	38.31 ± 0.19

CCCCCCn1cc[n+](C)c1.F[B-](F)(F)F [1-hexyl-3-methylimidazolium tetrafluoroborate]
surface tension liquid-gas [mN/m]
Conditions	Wilhelmy plate method	du Nouy ring method
268.58 K	39.81 ± 0.2	39.79 ± 0.2
273.34 K	39.52 ± 0.2	39.54 ± 0.2
277.72 K	39.29 ± 0.2	–
277.76 K	–	39.32 ± 0.2
282.51 K	39.04 ± 0.2	–
282.71 K	–	39.21 ± 0.2
288.13 K	38.71 ± 0.19	38.75 ± 0.19
292.87 K	38.47 ± 0.19	–
292.93 K	–	38.49 ± 0.19
298.07 K	38.2 ± 0.19	38.21 ± 0.19
303.15 K	37.88 ± 0.19	–
303.19 K	–	37.85 ± 0.19
308.22 K	–	37.66 ± 0.19
308.23 K	37.64 ± 0.19	–
313.35 K	37.32 ± 0.19	–
313.48 K	–	37.33 ± 0.19
318.39 K	–	37.08 ± 0.19
318.48 K	37.08 ± 0.19	–
323.32 K	–	36.83 ± 0.18
323.34 K	36.81 ± 0.18	–
328.17 K	36.53 ± 0.18	–
328.2 K	–	36.54 ± 0.18
333.22 K	36.25 ± 0.18	–
333.24 K	–	36.21 ± 0.18
337.92 K	36.01 ± 0.18	–
337.97 K	–	36 ± 0.18
343.79 K	35.68 ± 0.18	35.7 ± 0.18
348.5 K	35.44 ± 0.18	–
348.54 K	–	35.39 ± 0.18
356.17 K	34.99 ± 0.18	–
356.18 K	–	35 ± 0.18

CCCCCCn1cc[n+](C)c1.O=S(=O)([O-])C(F)(F)F [1-hexyl-3-methylimidazolium trifluoromethanesulfonate]
surface tension liquid-gas [mN/m]
Conditions	Wilhelmy plate method	de Nouy ring method
293.98 K	32.58 ± 0.16	–
294.03 K	–	32.64 ± 0.16
298.11 K	–	32.37 ± 0.16
298.13 K	32.37 ± 0.16	–
303.23 K	32.17 ± 0.16	–
303.24 K	–	32.19 ± 0.16
308.28 K	31.99 ± 0.16	–
308.32 K	–	32.01 ± 0.17
313.29 K	31.8 ± 0.16	–
313.3 K	–	31.86 ± 0.16
318.29 K	–	31.66 ± 0.16
318.3 K	31.64 ± 0.16	–
323.49 K	–	31.42 ± 0.16
323.5 K	31.45 ± 0.16	–
328.04 K	31.35 ± 0.16	–
328.12 K	–	31.25 ± 0.16
333.26 K	31.09 ± 0.16	–
333.32 K	–	30.89 ± 0.15
337.85 K	30.92 ± 0.16	–
337.88 K	–	30.81 ± 0.15
342.94 K	30.72 ± 0.15	–
343.09 K	–	30.5 ± 0.15
347.58 K	30.55 ± 0.15	–
347.59 K	–	30.38 ± 0.15
355.44 K	30.28 ± 0.15	30.06 ± 0.15
